Measured values taken from patent US5808139A (Ligand Pharmaceuticals Incorporated, priority 1994, dated 1998).

Assays:
[1] = test system: endometrium of the uterus; experiment: Decidualization assay in pseudopregnant mice, oil-induced uterine weight gain; assay type: in vivo; conditions: 0.1 mg
Experimental: A successful pregnancy requires not only the effective collision and fusion of egg and spermatozoon, but also the provision of a receptive and supportive uterus. The preparation of the endometrium of the uterus for implantation (i.e. decidualization) starts well before the blastocyst arrives in the uterus.
Psuedopregnant mice (i.e. mated with vasectomized males) were used to establish the assay system. […] At 16 hours of Day 4, a small volume of sesame oil (10 μl) was introduced to the lumen of the right uterine horn to serve as a decidual stimulus. The left horn was left undisturbed to serve as an internal control. Autopsies were performed on Day 7 to assess uterine wet weight gains in the stimulated versus non-stimulated uterine horns.
Each of these compounds was intraluminally administered in an appropriate dosage on Day 4 along with the sesame oil administration.

[2] = test system: progesterone receptor (T47D cells); experiment: Antagonist assay in T47D (human breast cancer) cells (Tables 1 and 2); assay type: cell-based
[3] = test system: glucocorticoid, mineralocorticoid, androgen, estrogen, and retinoic acid receptors; orphan receptors; experiment: Cross-reactivity with other known intracellular receptor classes; assay type: cell-based
Experimental: Compound SO-9 was also tested with orphan receptors (which are receptors whose natural ligand is unknown).
The 3R and 3S diastereomeric acetates of cyclocymopol monomethyl ether were also individually tested for cross reactivity with the other known intracellular receptor classes. […] No antagonist activity was detected with either compound.

| IC50 ([2]; concentration required to reduce the maximal response by 50%, read-out: Potency (IC50), T47D cells) [nM] | SMILES | Blocking of decidualization weight gain (in words) [1] | Net Uterine Weight Gain ([1]; intraluminal, autopsy Day 7, oil alone control 334.7 +/- 41.0) [mg] | Efficacy (% maximal response relative to RU-486), T47D cells ([2]; antagonist activity, relative to RU-486) [%] | Cross-reactivity with other intracellular receptors [3] |
| --- | --- | --- | --- | --- | --- |
| – | CC#C[C@]1(O)CC[C@H]2[C@@H]3CCC4=CC(=O)CCC4=C3[C@@H](c3ccc(N(C)C)cc3)C[C@@]21C [RU-486, reference compound] | completely blocked this decidualization weight gain | 9.53 ± 3.51 | – | – |
| 385 | C=C1CC[C@@H](Br)C(C)(C)[C@@H]1Cc1cc(OC)c(Br)cc1O [SO-53, (3R)-cyclocymopol monomethyl ether] | – | – | 85 | not to cross-react with any of the other receptors |
